Laboratory results: patent EP0503411A1, “Substituted N-phenylpiperidines and medicaments thereof” (BASF Aktiengesellschaft, priority 1991, dated 1992)

Key:
[1] = target: Sigma-Rezeptor; experiment: Sigma receptor binding test ([³H]-Ditolylguanidin binding, rat cerebrum membranes); design: species or system Ratte; details: [³H]-Ditolylguanidin-Bindungsstelle, 37°C
Text: Der verwendete Bindungsassay (Bindung von [³H]-Ditolylguanidin) erfaßt sogenannte "Haloperidolsensitive-Sigma-Rezeptoren", die eine hohe Affinität zum Haloperidol, aber nur geringe Affinität zum Phencyclidin und zu Opoiden aufweisen.
Life Sciences 47, 1073 (1990)], eingesetzt.
Rattengroßhirne wurden in dem 10fachen Volumen Homogenisierungspuffer (50 mmol Tris(hydroxymethyl)-amino-methan, 0,1 mmol Ethylendiamintetraacetat, pH=7,7) mit einem Polytron-Homogenisiator homogenisiert (20 sec.). Nach 15 Minuten Zentrifugation bei 40000 Umdrehungen/min wurde das erhaltene Pellet resuspendiert und die Suspension erneut 15 Minuten lang mit 40000 Umdrehungen/min zentrifugiert. Das hierbei erhaltene Pellet wurde im 5fachen Volumen Homogenisierungspuffer resuspendiert und bis zur weiteren Verwendung in flüssigem Stickstoff eingefroren.
Testsubstanz und Membranen (0,3 mg Protein) wurden in 0,3 ml Inkubationspuffer (5 mmol Tris(hydroxymethyl)-amino-methan, 0,1 mmol Ethylendiamintetraacetat, pH=7,7) 45 Minuten bei 37°C inkubiert. Nach Zugabe von 100 000 dpm [³H]-Ditolylguanidin (54,5 Ci/mmol) wurde noch 1 Stunde inkubiert. Die Membranen wurden über GF/B-Filter (dunn-Labortechnik, Asbach) filtriert und mit einem 37°C warmen Waschpuffer (5 mmol Tris(hydroxymethyl)-amino-methan, 0,1 mmol Ethylendiamintetraacetat, pH=7,4) gewaschen. Die verbleibende Radioaktivität auf den Filtern wurde durch Flüssig-Scintillationszählung gemessen. Die Bindungsdaten wurden durch iterative Anpassungsprogramme analysiert.

[2] = system: Meerschweinchenherzen; experiment: QT-prolonging effect, ECG measurement on isolated Langendorff-perfused guinea pig heart; design: species or system Duncin-Hartley-Meerschweinchen; details: concentration in perfusate giving 20 % increase of initial QT duration, cumulative addition every 15 min, from linear regression
Text: Die Wirkung der Phenylpiperidine I als Repolarisationshemmstoffe kann man durch EKG-Messungen belegen. Dabei unterteilt man die Herzperiode zeitlich in Systole (Zusammenziehen des Herzens), auch QT-Dauer genannt, und Diastole (Erschlaffung des Herzens mit Blutfüllung der Herzkammern). Repolarisationshemmstoffe bewirken nun eine Verlängerung der QT-Dauer ohne die Vorhofkammer-überleitungszeit (PQ-Dauer) und die Anspannungszeit (QRS-Dauer, Beginn der Systole bis zum öffnen der Semilunarklappen) wesentlich zu verändern (s. Pschyrembel, 254. Auflage, 1982).
Die Wirksamkeit der erfindungsgemäßen Verbindungen als Repolarisationshemmstoffe läßt sich im Tierversuch durch EKG-Messungen beispielsweise am Meerschweinchenherzen untersuchen (s. Basic Res. Cardiol. 82 (1987) 437; J. Pharmacol. Methods 21 (1989) 195). Zum Vergleich der Wirksamkeit mehrerer Substanzen dient dabei zum Beispiel die Dosis eines Wirkstoffes, bei der eine 20 %ige Zunahme des QT-Ausgangswertes eintritt (ED₂₀ %). Hierzu trägt man die logarithmierten Dosiswerte der jeweiligen Substanzen gegen die experimentell gefundenen relativen Änderungen der QT-Dauer auf, und ermittelt mittels linearer Regression die Funktionsgleichung einer Geraden, aus der man dann den ED20 %-Wert berechnen kann.
Mit dieser Methode wurden die ED20 %-Werte erfindungsgemäßer Verbindungen bestimmt (s. Tabelle 1). Als Vergleichssubstanz diente D-Sotalol [4'-(1-Hydroxy-2-(isopropylamino)-ethyl)methansulfonanilid].
Als Versuchstiere dienten männliche Duncin-Hartley-Meerschweinchen mit einem Körpergewicht von 300 bis 350 g. 30 min nach Applikation von 1250 I.E. Heparin/kg Körpergewicht in den Bauchraum wurden die Tiere durch Genickschlag getötet. Nach dem Durchtrennen der Kopfschlagadern zum Entbluten, wurde der Bruststamm geöffnet, das Herz herausgetrennt und an eine Perfusionsapparatur angeschlossen. Die Perfusion erfolgte nach Langendorff mit Sauerstoff angereicherter auf 37°C erwärmter Krebs-Henseleit-Lösung (NaCl 6896 mg/l; KCl 350 mg/l; MgSO₄ 285 mg/l; CaCl₂ 370 mg/l; KH₂PO₄ 161 mg/l; NaHCO₃ 2090 mg/l; Glukose 2000 mg/l). Dabei wurde das Perfusionsvolumen pro Zeiteinheit bei einem Gesamtvolumen von 100 ml auf 4 bis 6 ml/min und der Perfusionsdruck auf 60 bis 70 mm Hg eingestellt. Nach einer Äquilibrierzeit von 30 min wurde zirkulierend perfundiert.
Die EKG-Messungen wurden über zwei Silberelektroden, die auf der Herzoberfläche im oberen Bereich der linken Koronararterie und auf der Rückseite des Herzens auf Höhe der Ventilebene angebracht waren, aufgenommen. Gemessen wurden die PQ-, QT- und QRS-Zeiten sowie die Herzfrequenz.
Die Substanzgabe erfolgte kumulativ im Abstand von 15 min ins Perfusat.

Ki [1] | Molecule | ED20 % [2]
2.8 nM | 1-(4-Nitrophenyl)-4-(4-phenyl-1-piperidinoyl)-piperidin [Beispiel 8] | 
11 nM | CN(Cc1ccccc1)CC1CCN(c2ccc([N+](=O)[O-])cc2)CC1 [Beispiel 2, 4-(N-Benzyl-N-methylaminomethyl)-1-(4-nitrophenyl)-piperidin] | 0,42 µmol/l
 | N#Cc1ccc(N2CCC(N3CCN(c4ccc([N+](=O)[O-])cc4)CC3)CC2)cc1 [Beispiel 3, N-[4-N(4-Cyanophenyl)piperidinoyl]-N'³(4-nitrophenyl)-piperazin] | 0,031 µmol/l
 | CN(Cc1ccc(NS(C)(=O)=O)cc1)CC1CCN(c2ccc(NS(C)(=O)=O)cc2)CC1 [Beispiel 10, 1-(4-Methansulfonamidophenyl)-4-(N-(4-methansulfonamidobenzyl)-N-methylaminomethyl)-piperidin] | 0,96 µmol/l
2 nM | CN(Cc1ccccc1)C1CCCN(c2ccc([N+](=O)[O-])cc2)C1 (stereo not shown) [Beispiel 11, 3-(N-Benzyl-N-methylamino)-1-(4-nitrophenyl)-piperidin] | 1,1 µmol/l
 | CN(CC(O)c1ccc(F)cc1)C1CCN(c2ccc([N+](=O)[O-])cc2)CC1 (stereo not shown) [Beispiel 12, 4-[N,N-[2-(4-Fluorphenyl)-2-hydroxyethyl]methylamino]-1-(4-nitrophenyl)-piperidin] | 0,21 µmol/l
 | CC(C)NCC(O)c1ccc(NS(C)(=O)=O)cc1 [D-Sotalol, 4'-(1-Hydroxy-2-(isopropylamino)-ethyl)methansulfonanilid, reference compound] | 16,0 µmol/l
29.1 nM | Cc1ccccc1NC(=N)Nc1ccccc1C [DTG, 1,3-Di-o-tolyl-guanidin, reference compound] | 
